Test results taken from patent US20210106550A1, “COMPOSITIONS FOR PREVENTING OR TREATING COGNITIVE IMPAIRMENT-RELATED DISEASE COMPRISING MUMEFURAL” (KOREA INSTITUTE OF ORIENTAL MEDICINE, priority 2018, published 2021).

Experiments:
astrocytes = experiment: immunohistostaining of GFAP (astrocytes) in hippocampus and white matter; format: in vivo, Wistar rats
Experimental: (§1) Specifically, 12-week-old Wister rats (350 g to 380 g) were used for the experiments. After obtaining the experimental animals, appearance was visually inspected and then normal symptoms were observed during a 7-day acclimation period. Healthy animals were selected therefrom and assigned to groups by a random method according to body weight ranges, and then experiments were performed. During the acclimation and experiment, a constant breeding environment was maintained under the conditions of a temperature of 23±3° C., a relative humidity of 50±10%, a ventilation frequency of 12 times to 16 times per hour, a 12-hour light-dark cycle (light on at 7:00, light off at 19:00), and an intensity of illumination of 150 Lx to 300 Lx. Experiments were performed using sterilized instruments, and the rats were allowed free access to tap water and a solid feed (PMI nutrition, USA) for 24 hours.
(§2) In order to construct a vascular dementia-mimic animal model, chronic cerebral hypoperfusion was induced by bilateral common carotid artery occlusion (2VO, hereinafter referred to as “brain damage (BCCA0)”) (Wakita et al., 1994). The rats were anesthetized with 4% isoflurane, and the anesthesia was maintained by 1.5% isoflurane during the operation. The central neck was incised to expose the bilateral common carotid artery carefully so as not to cause damage to the vagal nerve. Ligation was performed twice with No. 3 silk, thereby constructing an animal model in which dementia was induced by brain damage.
After 21 days from the BCCA0 operation, the Wistar rats were orally administered with mumefural for 42 days. The rats were divided into 5 groups listed in Table 1 below, and controls were orally administered with saline. […]
In order to investigate effects of mumefural on normalization of damaged hippocampus and corpus callosum of white matter in the dementia-mimic animal model, mumefural was administered in the same manner as in Example 1, and then microglia and astrocytes were detected in the hippocampus and white matter to identify gliosis. […]

[1] = system: ChAT-positive cholinergic cells; experiment: immunohistostaining of ChAT-positive cholinergic cells in basal forebrain; format: in vivo, Wistar rats; details: BCCAo rats, oral mumefural; compared with the negative control; FIGS. 4A, 4B
Experimental: (§3) Specifically, 12-week-old Wister rats (350 g to 380 g) were used for the experiments. After obtaining the experimental animals, appearance was visually inspected and then normal symptoms were observed during a 7-day acclimation period. Healthy animals were selected therefrom and assigned to groups by a random method according to body weight ranges, and then experiments were performed. […]
In order to investigate effects of mumefural on normalization of the cholinergic system in the dementia-mimic animal model, mumefural was administered in the same manner as in Example 1, and then the number of cholinergic neurons of the basal forebrain was measured.
Specifically, the brain was excised from each of the dementia-mimic rats after administration of mumefural was completed and sectioned into slices with a thickness of 40 μm. Subsequently, the cholinergic neurons of the basal forebrain were detected using choline acetyltransferase (ChAT) protein, which is known to be expressed in cholinergic neurons. The slices were stained by immunohistostaining using an anti-ChAT antibody as a primary antibody and a donkey anti-goat antibody as a secondary antibody, and anti-ChAT positive cells were detected.

AChE = experiment: enzyme-linked immunosorbent assay of AChE activity in basal forebrain; format: in vivo; details: compared with the negative control; FIG. 6
Experimental: as §1
(§4) In order to construct a vascular dementia-mimic animal model, chronic cerebral hypoperfusion was induced by bilateral common carotid artery occlusion (2VO, hereinafter referred to as “brain damage (BCCA0)”) (Wakita et al., 1994). The rats were anesthetized with 4% isoflurane, and the anesthesia was maintained by 1.5% isoflurane during the operation. The central neck was incised to expose the bilateral common carotid artery carefully so as not to cause damage to the vagal nerve. […]

[2] = system: PSD-95 and synaptophysin-1 proteins; experiment: western blot of synaptic markers in hippocampus; format: in vivo, Wistar rats; details: compared with the negative control; FIGS. 11A, 11B
Experimental: as §1, with “Experiments were performed using sterilized instruments, and the rats were allowed free access to tap water and a solid feed (PMI nutrition, USA) for 24 hours.” left out
In order to investigate effects of mumefural on normalization of synaptic markers in the dementia-mimic animal model, mumefural was administered in the same manner as in Example 1, and then expression levels of PSD-95 and synaptophysin-1 proteins in the hippocampus were analyzed.
(§5) Specifically, the hippocampus was excised from each of the dementia-mimic rats after administration of mumefural was completed, and the proteins were extracted therefrom. Expression levels of the PSD-95 and synaptophysin-1 proteins were analyzed by western blotting. β-Actin was used as a loading control.

[3] = system: ChAT, VAChT, and AChE proteins; experiment: western blot of ChAT, VAChT, and AChE proteins in basal forebrain; format: in vivo; details: compared with the negative control; FIGS. 5A, 5B
Experimental: as §1, §2
After 21 days from the BCCA0 operation, the Wistar rats were orally administered with mumefural for 42 days. The rats were divided into 5 groups listed in Table 1 below, and controls were orally administered with saline. Different concentrations of mumefural were set in the oral administration as low concentration (20 mg/kg), medium concentration (40 mg/kg), and high concentration (80 mg/kg).

IL-1β and IL-18 = experiment: enzyme immunoassay of inflammatory cytokines in hippocampus tissue; format: in vivo, Wistar rats; details: compared with the negative control, FIG. 20
Experimental: as §1, §4

phospho-CAMKII protein = experiment: western blot of phospho-CAMKII in hippocampus; format: in vivo, Wistar rats; details: compared with the negative control; FIGS. 13A, 13B
Experimental: as §3
In order to investigate effects of mumefural on normalization of damaged hippocampus in the dementia-mimic animal model, mumefural was administered in the same manner as in Example 1, and then expression levels of neurotransmitter secretion substances in the hippocampus were analyzed.
as §5, with “and” for “and the”, “phospho-Ca^2+/calmodulin-dependent protein kinase II (phospho-CAMKII)” for “the PSD-95”, “Ca^2+/calmodulin-dependent protein kinase II (CAMKII)” for “synaptophysin-1”

MBP = experiment: western blot of MBP in hippocampus; format: in vivo, Wistar rats; details: compared with the negative control, FIG. 10
Experimental: as §1, §4

## O=Cc1ccc(COC(=O)CC(O)(CC(=O)O)C(=O)O)o1 (centres unmarked) [mumefural]
astrocytes; 20 mg/kg, 40 mg/kg, and 80 mg/kg oral, hippocampus and white matter
  numbers of astrocytes, effect vs normal control: effects similar to or superior to those of the normal control
astrocytes; compared with the negative control, FIGS. 16A, 16B
  numbers of astrocytes (GFAP positive cells) in the hippocampus: significantly decreased
astrocytes; compared with the negative control, FIGS. 16C, 16D
  numbers of astrocytes (GFAP positive cells) in the white matter: significantly decreased
[1]
  number of cells positive for the anti-ChAT antibody in the basal forebrain: significantly increased
AChE
  activity of AChE in the basal forebrain: reduced
[2]
  expression level of PSD-95 protein in hippocampus: increased
  expression level of synaptophysin-1 protein in hippocampus: increased
[3]
  expression level of AChE protein in the basal forebrain: reduced
  expression level of ChAT protein in the basal forebrain: increased
  expression level of VAChT protein in the basal forebrain: increased
IL-1β and IL-18
  level of IL-1β in hippocampus tissue: significantly decreased
  level of IL-18 in hippocampus tissue: significantly decreased
phospho-CAMKII protein
  expression level of the phospho-CAMKII protein in hippocampus: significantly increased
MBP
  density of the MBP in the hippocampus: increased
